From US10800816B2 (Baxalta GmbH, priority 2012, dated 2020)
“Also recorded” adds a separate entry of the source. Bridges are numbered along the chain shown (N, C = ends). [ ]: non-standard residue; d: D form.

Columns and labels:
[1] = tested on: FVIII-inhibited whole blood; assay: Rotation thromboelastography (ROTEM) in whole blood; design: species or system human; details: Hem A / FVIII-inhibited human whole blood
Procedure: Continuous visco-elastic assessment of human whole blood clot formation and firmness was performed by rotation thromboelastography with whole blood preparations in the presence or absence of peptides. […] Test samples were prepared by dissolving quantities of peptides in either DMSO or HEPES buffered saline (with or without 0.1% Tween 80).
Recordings were made using a ROTEM thromboelastography coagulation analyzer (Pentapharm, Munich, Germany) at 37° C. Briefly, blood is added into a disposable cuvette in a heated cuvette holder. A disposable pin (sensor) is fixed on the tip of a rotating axis. The axis is guided by a high precision ball bearing system and rotates back and forth. The axis is connected with a spring for the measurement of elasticity. The exact position of the axis is detected by the reflection of light on a small mirror on the axis. The loss of elasticity when the sample clots leads to a change in the rotation of the axis. The data obtained are computer analyzed and visualized in a thromboelastogram. […] An elasticity of approximately zero is observed before clot formation begins. Mirror image traces above and below the zero line indicate the effect of clot formation on the rotation of the axis.
The analytical set-up was as follows: to 20 μL of test sample or control, 300 μL of pre-warmed (37° C.) CTI treated citrated whole blood was added, followed by 20 μL of a 1:15 dilution of TF PRP reagent containing recombinant human tissue factor (rTF, 3 pM) (TS40, Thrombinoscope BV, Maastricht, The Netherlands). Coagulation was initiated by the addition of 20 μ200 mM CaCl2 (star-TEM®, Pentapharm, Munich, Germany) and recordings were allowed to proceed for at least 120 min. The final concentration of rTF in the assay was 11 or 44 fM.
The thromboelastographic parameters of clotting time (CT), clot formation time (CFT) and maximum clot firmness (MCF) were recorded in accordance with the manufacturer's instructions. CT is defined as the time from the start of measurement to the start of clot formation. CFT is defined as the time from the start of clot formation until an amplitude of 20 mm is reached. MCF is the maximum difference in amplitude between the two traces during the assay. The first derivative of the data of the thromboelastogram are plotted to obtain a graph of velocity (mm/s) against time (s). From this graph, the maximum velocity (maxV) is determined. The time at which the maximum velocity is obtained (maxV-t) is also determined.
This example describes a method for assessing clot formation in whole blood using rotation thromboelastography (ROTEM). The assay was performed as described in Example 8. The analytical set-up was as follows: 300 μL of pre-warmed (37° C.) CTI treated citrated whole blood was added to a peptide sample (10, 100, 1000 nM final assay concentration) or a control, followed by addition of a 1:15 dilution of TF PRP reagent containing recombinant human tissue factor (rTF, 3 pM) (TS40, Thrombinoscope BV, Maastricht, The Netherlands). In certain experiments, exogenous full length TFPI (flTFPI) at final concentrations of 2 or 10 nM was added to simulate flTFPI plasma levels of up to 50-fold over normal. Coagulation was initiated by the addition of 20 μL 200 mM CaCl2 (star-TEM®, Pentapharm, Munich, Germany) and recordings were allowed to proceed for at least 120 min. The final concentration of rTF in the assay was 44 fM. The thromboelastographic parameters of clotting time (CT), clot formation time (CFT) and maximum clot firmness (MCF) were recorded in accordance with the manufacturer's instructions. CT is defined as the time from the start of measurement to the start of clot formation. CFT is defined as the time from the start of clot formation until an amplitude of 20 mm is reached. MCF is the maximum difference in amplitude between the two traces during the assay.

in vitro = details: human, plasma
[2] = human, plasma, 24 h
[3] = mouse, 24 h
TFPI [4] = assay: % Inhibition @ 2.5µM
TFPI [5] = assay: % Inhibition @ 0.63µM
TFPI [6] = assay: FXa Inhibition assay | EC50 (µM)
TFPI [7] = assay: Extrinsic Tenase Inhibition assay | % Inhibition @ 2.5μM

Molecule	% Inhibition @ […] (TFPI [4])	% Inhibition @ […] (TFPI [5])	EC50 (TFPI [6])	Extrinsic Tenase Inhibition assay | % Inhibition @ […] (TFPI [7])	further results
CC(=O)N[C@@H](Cc1ccccc1)C(=O)N[C@@H](CCC(N)=O)C(=O)N[C@@H](CO)C(=O)N[C@@H](CCCCN)C(=O)N1CCC[C@@H]1C(=O)N[C@@H](CC(N)=O)C(=O)N[C@H](C(=O)N[C@@H](Cc1cnc[nH]1)C(=O)N[C@H](C(=O)N[C@@H](CC(=O)O)C(=O)NCC(=O)N[C@@H](Cc1ccc(O)cc1)C(=O)N[C@@H](Cc1ccccc1)C(=O)N[C@@H](CCC(=O)O)C(=O)N[C@@H](CCCNC(=N)N)C(=O)N[C@@H](CC(C)C)C(=O)NC(C)(C)C(=O)N[C@@H](C)C(=O)N[C@@H](CCCCN)C(=O)N[C@@H](CC(C)C)C(N)=O)C(C)C)C(C)C [JBT1857]	–	–	–	–	coagulation parameters [1]: restored coagulation parameters in Hem A blood; also recorded: positively impacted blood coagulation parameters, but performed less efficiently than JBT1837; remaining at 24 h (in vitro): 27%; percentage of original amount of peptide remaining [2]: 27%; percentage of initial amount of peptide remaining in plasma [3]: < 10%; percentage of initial amount of peptide remaining ([3]; plasma): Less than 5%
Ac-FQSKKAVFVFGYFERLRAKL-NH2 (SEQ ID NO: 288) [JBT0696]	48%	26%	710 nM	–	–
Ac-FQSKaNVFVFGYFERLRAKL-NH2 (SEQ ID NO: 53) (Ac-FQSK[dA]NVFVFGYFERLRAKL-NH2; SMILES CC(=O)N[C@@H](Cc1ccccc1)C(=O)N[C@@H](CCC(N)=O)C(=O)N[C@@H](CO)C(=O)N[C@@H](CCCCN)C(=O)N[C@H](C)C(=O)N[C@@H](CC(N)=O)C(=O)N[C@H](C(=O)N[C@@H](Cc1ccccc1)C(=O)N[C@H](C(=O)N[C@@H](Cc1ccccc1)C(=O)NCC(=O)N[C@@H](Cc1ccc(O)cc1)C(=O)N[C@@H](Cc1ccccc1)C(=O)N[C@@H](CCC(=O)O)C(=O)N[C@@H](CCCNC(=N)N)C(=O)N[C@@H](CC(C)C)C(=O)N[C@@H](CCCNC(=N)N)C(=O)N[C@@H](C)C(=O)N[C@@H](CCCCN)C(=O)N[C@@H](CC(C)C)C(N)=O)C(C)C)C(C)C) [JBT0663]	81%	60%	290 nM	–	–
Ac-FQSKaNVFVTGYFARLRAKL-NH2 (SEQ ID NO: 54) (Ac-FQSK[dA]NVFVTGYFARLRAKL-NH2; SMILES CC(=O)N[C@@H](Cc1ccccc1)C(=O)N[C@@H](CCC(N)=O)C(=O)N[C@@H](CO)C(=O)N[C@@H](CCCCN)C(=O)N[C@H](C)C(=O)N[C@@H](CC(N)=O)C(=O)N[C@H](C(=O)N[C@@H](Cc1ccccc1)C(=O)N[C@H](C(=O)N[C@H](C(=O)NCC(=O)N[C@@H](Cc1ccc(O)cc1)C(=O)N[C@@H](Cc1ccccc1)C(=O)N[C@@H](C)C(=O)N[C@@H](CCCNC(=N)N)C(=O)N[C@@H](CC(C)C)C(=O)N[C@@H](CCCNC(=N)N)C(=O)N[C@@H](C)C(=O)N[C@@H](CCCCN)C(=O)N[C@@H](CC(C)C)C(N)=O)[C@@H](C)O)C(C)C)C(C)C) [JBT0668]	70%	43%	520 nM	–	–
Ac-SRYKWFCGMRDMKGTMSAVWVKF-NH2 (SEQ ID NO: 1160) [JBT0454]	–	–	–	0%	–
Ac-SRYKWFGM[CRDMKGTMSC]VWVKF-NH2 (SEQ ID NO: 1233) (Ac-SRYKWFGMCRDMKGTMSCVWVKF-NH2; disulfide 9-18; SMILES CSCC[C@H](NC(=O)CNC(=O)[C@H](Cc1ccccc1)NC(=O)[C@H](Cc1c[nH]c2ccccc12)NC(=O)[C@H](CCCCN)NC(=O)[C@H](Cc1ccc(O)cc1)NC(=O)[C@H](CCCNC(=N)N)NC(=O)[C@H](CO)NC(C)=O)C(=O)N[C@H]1CSSC[C@@H](C(=O)N[C@H](C(=O)N[C@@H](Cc2c[nH]c3ccccc23)C(=O)N[C@H](C(=O)N[C@@H](CCCCN)C(=O)N[C@@H](Cc2ccccc2)C(N)=O)C(C)C)C(C)C)NC(=O)[C@H](CO)NC(=O)[C@H](CCSC)NC(=O)[C@H]([C@@H](C)O)NC(=O)CNC(=O)[C@H](CCCCN)NC(=O)[C@H](CCSC)NC(=O)[C@H](CC(=O)O)NC(=O)[C@H](CCCNC(=N)N)NC1=O) [JBT0462]	–	–	–	0%	–
